Results as given in patent publication US20130130992A1, “DIPEPTIDE DERIVATIVE FOR THE TREATMENT OF CANCER” (ONCOTEST GMBH, priority 2010, published 2013).
Several values for one entry are separate records, joined by “and”; a condition that tells them apart may be missing. Identical values can stand only once. Like-named read-outs stand apart in the source and are kept apart here.

Columns and labels:
Type in all cases: cell-based
PXF 1752L = assay: Monolayer propidium iodide assay, PXF 1752L; conditions: Homo sapiens, 96 h, Pleuramesothelioma, 4 days of treatment
From the text: (§1) Oncotest GmbH, Germany's proprietary tumor cell line panel comprises 40 cell lines. These cell lines were derived from 15 different tumor histotypes, each represented by 1 to 6 different cell lines. Cell lines were established from cancer of the bladder (3), colon (4), head and neck (1), lung (6), breast (3), pancreas (3), prostate (4), ovary (2), kidney (3), liver (1), stomach (1) and the uteri body (1), as well as from melanoma (3), sarcoma (2) and pleuramesothelioma (3). Out of these 40 cell lines, 24 cell lines were established at Oncotest, from patient-derived tumor xenografts. […]
(§2) Stock solutions of the compound of formula (1) (3.3 mM in DMSO) were prepared and stored in small aliquots (200 μl) at −20° C. […] Each concentration was evaluated in triplicate. […]
(§3) Cells were plated in 96-well flat-bottom microtiter plates at a cell density of 4,000 to 20,000 cells/well. […] After an incubation period of 1-2 hours at room temperature, fluorescence (FU) was measured using the Cytofluor 4000 microplate reader (excitation λ=530 nm, emission λ=620 nm) to quantify the amount of attached viable cells. […] Based on the T/C values, relative IC50 values were determined by non-linear regression (log [conc. of inhibitor] versus response (% T/C)) using the GraphPad Prism® analysis software (Prism 5 for Windows, version 5.01, GraphPad Software Inc., CA). […]

LIXF 575L = assay: Monolayer propidium iodide assay, LIXF 575L; conditions: Homo sapiens, 96 h, Liver, 4 days of treatment
From the text: as §1, §2, §3

MEXF 462NL = assay: Monolayer propidium iodide assay, MEXF 462NL; conditions: Homo sapiens, 96 h, Melanoma, 4 days of treatment
From the text: as §1, §2, §3

PRXF 22RV1 = assay: Monolayer propidium iodide assay, PRXF 22RV1; conditions: Homo sapiens, 96 h; PRXF 22RV1, Prostate; 4 days of treatment
From the text: as §1, §2, §3

UXF 1138L = assay: Monolayer propidium iodide assay, UXF 1138L; conditions: Homo sapiens, 96 h, Uterus, 4 days of treatment
From the text: as §1, §2, §3

[1] = tested on: panel of 40 human tumor cell lines; assay: Monolayer propidium iodide assay, whole panel; conditions: for IC50: Homo sapiens
From the text: Oncotest GmbH, Germany's proprietary tumor cell line panel comprises 40 cell lines. These cell lines were derived from 15 different tumor histotypes, each represented by 1 to 6 different cell lines. Cell lines were established from cancer of the bladder (3), colon (4), head and neck (1), lung (6), breast (3), pancreas (3), prostate (4), ovary (2), kidney (3), liver (1), stomach (1) and the uteri body (1), as well as from melanoma (3), sarcoma (2) and pleuramesothelioma (3). Out of these 40 cell lines, 24 cell lines were established at Oncotest, from patient-derived tumor xenografts. The other 16 cell lines were either provided by the NCl (Bethesda; MD, USA) or were purchased from ATCC (Rockville, Md., USA) or DSMZ (Braunschweig, Germany).
Cell lines were routinely passaged once or twice weekly and maintained in culture for upto 20 passages. All the cells were grown at 37° C. in a humidified atmosphere with 5% (Carbon Dioxide) CO2 in RPMI 1640 medium supplemented with 10% (v/v) fetal calf serum (FCS) and 0.1 mg/ml gentamicin (medium and all other components from PAA, Colbe, Germany). Authenticity of all cell lines was proven by STR (short tandem repeat) analysis, a PCR based DNA-fingerprinting methodology.
Stock solutions of the compound of formula (1) (3.3 mM in DMSO) were prepared and stored in small aliquots (200 μl) at −20° C. An aliquot of the stock solution was thawed on the day of use and stored at room temperature prior to and during dosing. The subsequent dilutions were done with complete RPMI 1640 cell culture medium as follows: the stock solution was diluted 1:22 followed by serial dilutions finally resulting in a (compared to the test concentration) 15-fold higher concentration. For the final dilution step (1:15), 10 μl/well of the solution was directly added to 140 μl/well culture medium. Compound of formula (1) [also referred as test compound] was tested at 0.00032, 0.001, 0.0032, 0.01, 0.032, 0.1, 0.32, 1, 3.2 and 10 μM. Each concentration was evaluated in triplicate.
A modified Propidium Iodide assay was used to assess the effect of the compound of formula (1) on the growth of the human tumor cell lines and was designed as in reference, Anti-cancer Drugs, 6, 522-532, (1995), the disclosure of which is incorporated by reference for the teaching of the assay.
Cells were plated in 96-well flat-bottom microtiter plates at a cell density of 4,000 to 20,000 cells/well. After a 24 hr recovery period to allow the cells to resume exponential growth, the compound of formula (1) was applied at 10 concentrations in half-log increments in triplicates and treatment continued for 4 days. After 4 days of treatment, cells were next washed with 200 μl phosphate buffer solution (PBS) to remove dead cells, then 200 μl of a solution containing 7 μg/ml propidium iodide (PI) and 0.1% (v/v) Triton X-100 were added to the wells. After an incubation period of 1-2 hours at room temperature, fluorescence (FU) was measured using the Cytofluor 4000 microplate reader (excitation λ=530 nm, emission λ=620 nm) to quantify the amount of attached viable cells. Pharmacological effects on cell proliferation and survival were expressed as Test/Control×100 (% T/C) values, with T and C representing the fluorescence read-outs for wells with and without test compound, respectively, i.e. T/C represents the ratio of viable cell numbers following incubation of cell line with and without test compound. Based on the T/C values, relative IC50 values were determined by non-linear regression (log [conc. of inhibitor] versus response (% T/C)) using the GraphPad Prism® analysis software (Prism 5 for Windows, version 5.01, GraphPad Software Inc., CA). For calculation of mean IC50 values over the 40 cell lines as tested, the geometric mean was selected. If Graph Pad Prism could not calculate reliable IC50 values by non-linear regression, the IC50 value was estimated by visual inspection of the concentration-effect curve.

PXF 1118L = assay: Monolayer propidium iodide assay, PXF 1118L; conditions: Homo sapiens, 96 h, Pleuramesothelioma, 4 days of treatment
From the text: as §1, §2, §3

OVXF 899L = assay: Monolayer propidium iodide assay, OVXF 899L; conditions: Homo sapiens, 96 h, Ovarian, 4 days of treatment
From the text: as §1, §2, §3

RXF 1781L = assay: Monolayer propidium iodide assay, RXF 1781L; conditions: Homo sapiens, 96 h, Renal, 4 days of treatment
From the text: as §1, §2, §3

CXF HT 29 = assay: Monolayer propidium iodide assay, CXF HT 29; conditions: Homo sapiens, 96 h; CXF HT 29, Colon; 4 days of treatment
From the text: as §1, §2, §3

MEXF 276L = assay: Monolayer propidium iodide assay, MEXF 276L; conditions: Homo sapiens, MEXF276L, 96 h, Melanoma, 4 days of treatment
From the text: as §1, §2, §3

MAXF MDA 231 = assay: Monolayer propidium iodide assay, MAXF MDA 231; conditions: Homo sapiens, MDA-MB-231, 96 h; MAXF MDA 231, Mammary; 4 days of treatment
From the text: as §1, §2, §3

BXF 1218L = assay: Monolayer propidium iodide assay, BXF 1218L; conditions: Homo sapiens, 96 h, Bladder, 4 days of treatment
From the text: as §1, §2, §3

CXF HCT 116 = assay: Monolayer propidium iodide assay, CXF HCT 116; conditions: Homo sapiens, 96 h; CXF HCT 116, Colon; 4 days of treatment
From the text: as §1, §2, §3

GXF 251 L = assay: Monolayer propidium iodide assay, GXF 251 L; conditions: Homo sapiens, 96 h, Gastric, 4 days of treatment
From the text: as §1, §2, §3

**Q.** Which IC50 (PXF 1752L) does the source give for `CCCC1CCCCCC(O)CC(=O)NC2CSSCC(NC2=O)C(=O)O1` (stereo not shown) [compound of formula (1)] here?
**A.** 187 nM

**Q.** What about the IC50 (LIXF 575L) of the same compound?
**A.** 295 nM

**Q.** What about the IC50 (MEXF 462NL) of the same compound?
**A.** 149 nM

**Q.** What about the IC50 (PRXF 22RV1) of the same compound?
**A.** 159 nM

**Q.** And the IC50 (UXF 1138L)?
**A.** 126 nM

**Q.** What about the “antitumor activity in all cell lines as tested” value ([1]; 0.00032 to 10 μM, 40 cell lines, 15 histotypes) of the same compound?
**A.** concentration-dependent antitumor activity

**Q.** And the “Tumor selectivity: number of cell lines with individual IC50 < mean IC50” value (from here on “Tumor selectivity: number of cell lines”) ([1]; Bladder)?
**A.** 2 out of 3 and 2/3

**Q.** And the “Tumor selectivity: number of cell lines” value ([1]; Breast)?
**A.** 1/3

**Q.** What about the “Tumor selectivity: number of cell lines” value ([1]; Colon) of the same compound?
**A.** 3/4

**Q.** And the IC50 ([1]; 3/3 pancreatic tumor cell lines, read-out: individual IC50, pancreatic tumor cell lines)?
**A.** < 60 nM

**Q.** And the IC50 ([1]; 5/6 cell lines derived from lung carcinoma, read-out: individual IC50, lung carcinoma cell lines)?
**A.** < 50 nM

**Q.** What about the IC50 ([1]; geometric mean over the 40 cell lines, read-out: Mean IC50) of the same compound?
**A.** 89 nM

**Q.** And the IC50 ([1]; upper bound for every cell line of the panel, read-out: IC50 achieved for all the 40 cell lines)?
**A.** < 330 nM

**Q.** What about the “Tumor selectivity: number of cell lines” value ([1]; Kidney) of the same compound?
**A.** 0/3

**Q.** And the “Tumor selectivity: number of cell lines” value ([1]; Lung)?
**A.** 5/6

**Q.** And the “Tumor selectivity: number of cell lines” value ([1]; Melanoma)?
**A.** 0/3

**Q.** What about the “Tumor selectivity: number of cell lines” value ([1]; Pancreas) of the same compound?
**A.** 3/3

**Q.** What about the “Tumor selectivity: number of cell lines” value ([1]; Pleurameso) of the same compound?
**A.** 1/3

**Q.** And the “Tumor selectivity: number of cell lines” value ([1]; Prostate)?
**A.** 2/4

**Q.** What about the IC50 (PXF 1118L) of the same compound?
**A.** 54 nM

**Q.** And the IC50 (OVXF 899L)?
**A.** 301 nM

**Q.** And the IC50 (RXF 1781L)?
**A.** 260 nM

**Q.** What about the IC50 (CXF HT 29) of the same compound?
**A.** 137 nM

**Q.** And the IC50 (MEXF 276L)?
**A.** 90 nM

**Q.** What about the IC50 (MAXF MDA 231) of the same compound?
**A.** 90 nM

**Q.** What about the IC50 (BXF 1218L) of the same compound?
**A.** 46 nM

**Q.** What about the IC50 (CXF HCT 116) of the same compound?
**A.** 48 nM

**Q.** What about the IC50 (GXF 251 L) of the same compound?
**A.** 93 nM
